Converted amounts (≈) assume the structure as drawn.
How the values were obtained:
Escherichia coli [1] = experiment: Antimicrobial activity against recombinant Escherichia coli DH5-alpha isolate expressing pBK-TEM-1 and TEM1 by disk diffusion assay; type: functional; details: DH5alpha
Escherichia coli [2] = experiment: microbe, parasite or virus in culture; type: functional; details: DH5alpha
Escherichia coli [3] = experiment: Antimicrobial activity against Escherichia coli DH5-alpha isolate expressing pBK-CMV by […]; type: functional; details: DH5alpha
Escherichia coli [4] = experiment: Antimicrobial activity against Escherichia coli DH5-alpha TC1295 isolate expressing TEM-1 by […]; type: functional; details: DH5alpha
Escherichia coli [5] = experiment: Antimicrobial activity against Escherichia coli DH5-alpha CF1179 isolate expressing CMT and TEM1 by […]; type: functional; details: DH5alpha
Escherichia coli [6] = experiment: Antimicrobial activity against Escherichia coli DH5-alpha CF1295 isolate expressing CMT and TEM1 by […]; type: functional; details: DH5alpha
Escherichia coli [7] = experiment: Antimicrobial activity against Escherichia coli DH5-alpha TC1179 isolate expressing TEM-1 by […]; type: functional; details: DH5alpha
Escherichia coli [8] = experiment: Antimicrobial activity against recombinant Escherichia coli DH5-alpha isolate expressing pBK-TEM-29 and ESBL by disk diffusion assay; type: functional; details: DH5alpha
Escherichia coli [9] = experiment: Antimicrobial activity against recombinant Escherichia coli DH5-alpha isolate expressing pBK-TEM-36 and IRT by disk diffusion assay; type: functional; details: DH5alpha
Escherichia coli [10] = experiment: Antimicrobial activity against recombinant Escherichia coli DH5-alpha isolate expressing pBK-TEM-28 and ESBL by disk diffusion assay; type: functional; details: DH5alpha
Escherichia coli [11] = experiment: microbe, parasite or virus in culture; type: functional; details: DH5alpha; remark: listed apart in the source
Escherichia coli [12] = experiment: Activity of Escherichia coli BL21(DE3) beta-lactamase TEM36
Escherichia coli [13] = experiment: Activity of Escherichia coli BL21(DE3) beta-lactamase TEM29
Escherichia coli [14] = experiment: Activity of Escherichia coli BL21(DE3) beta-lactamase TEM28
Escherichia coli [15] = experiment: Activity of Escherichia coli BL21(DE3) beta-lactamase TEM1
Escherichia coli [16] = experiment: Activity of Escherichia coli BL21(DE3) beta-lactamase TEM151
Escherichia coli [17] = experiment: Activity of Escherichia coli BL21(DE3) beta-lactamase TEM152
[18] = Inhibition of Escherichia coli BL21(DE3) beta-lactamase TEM152
[19] = Inhibition of Escherichia coli BL21(DE3) beta-lactamase TEM28
[20] = Inhibition of Escherichia coli BL21(DE3) beta-lactamase TEM29
[21] = Inhibition of Escherichia coli BL21(DE3) beta-lactamase TEM1
[22] = Inhibition of Escherichia coli BL21(DE3) beta-lactamase TEM151
[23] = Inhibition of Escherichia coli BL21(DE3) beta-lactamase TEM36

SMILES	MIC (Escherichia coli [1]) [µg/mL]	MIC (Escherichia coli [2]) [µg/mL]	MIC (Escherichia coli [3]) [µg/mL]	MIC (Escherichia coli [4]) [µg/mL]	MIC (Escherichia coli [5]) [µg/mL]	MIC (Escherichia coli [6]) [µg/mL]	MIC (Escherichia coli [7]) [µg/mL]	MIC (Escherichia coli [8]) [µg/mL]	MIC (Escherichia coli [9]) [µg/mL]	MIC (Escherichia coli [10]) [µg/mL]	MIC (Escherichia coli [11]) [µg/mL]	kcat (Escherichia coli [12]) [s⁻¹]	Km (Escherichia coli [13]) [µM]	kcat (Escherichia coli [13]) [s⁻¹]	kcat/Km (Escherichia coli [13]) [µM⁻¹ s⁻¹]	Km (Escherichia coli [14]) [µM]	kcat (Escherichia coli [14]) [s⁻¹]	kcat/Km (Escherichia coli [14]) [µM⁻¹ s⁻¹]	kcat (Escherichia coli [15]) [s⁻¹]	Km (Escherichia coli [16]) [µM]	other results
CO[C@@]1(NC(=O)Cc2cccs2)C(=O)N2C(C(=O)O)=C(COC(N)=O)CS[C@@H]21 [CEFOXITIN]	4	8 (≈ 18.7 µM)	4 (≈ 9.36 µM)	4 (≈ 9.36 µM)	8 (≈ 18.7 µM)	8 (≈ 18.7 µM)	4 (≈ 9.36 µM)	16	8	8	8 (≈ 18.7 µM)										
CO/N=C(\C(=O)N[C@@H]1C(=O)N2C(C(=O)O)=C(COC(C)=O)CS[C@H]12)c1csc(N)n1 [CEFOTAXIME]	0.06	0.06 (≈ 0.132 µM)	0.02 (≈ 0.0439 µM)	0.02 (≈ 0.0439 µM)	0.12 (≈ 0.263 µM)	0.12 (≈ 0.263 µM)	0.02 (≈ 0.0439 µM)	0.5	0.06	4	0.25 (≈ 0.549 µM)	< 0.1	345	14	0.04	50	9	0.18	< 0.1	304	kcat (Escherichia coli [16]): 5 s⁻¹; kcat/Km (Escherichia coli [16]): 0.02 µM⁻¹ s⁻¹; Km (Escherichia coli [17]): 34 µM; kcat (Escherichia coli [17]): 1 s⁻¹; kcat/Km (Escherichia coli [17]): 0.03 µM⁻¹ s⁻¹
C[C@]1(Cn2ccnn2)[C@H](C(=O)O)N2C(=O)C[C@H]2S1(=O)=O [TAZOBACTAM]																					IC50 [18]: 400 nM; IC50 [19]: 20 nM; IC50 [20]: 2.4 µM; IC50 [21]: 30 nM; IC50 [22]: 270 nM; IC50 [23]: 130 nM
CC(C)(O/N=C(\C(=O)N[C@@H]1C(=O)N2C(C(=O)[O-])=C(C[n+]3ccccc3)CS[C@H]12)c1csc(N)n1)C(=O)O [CEFTAZIDIME]	0.12	8 (≈ 14.6 µM)	0.12 (≈ 0.22 µM)	0.12 (≈ 0.22 µM)	64 (≈ 117 µM)	4 (≈ 7.32 µM)	0.12 (≈ 0.22 µM)	32	0.25	512	512 (≈ 937 µM)	< 0.1	215	10	0.05	240	64	0.27	< 0.1	250	kcat (Escherichia coli [16]): 5 s⁻¹; kcat/Km (Escherichia coli [16]): 0.02 µM⁻¹ s⁻¹; Km (Escherichia coli [17]): 230 µM; kcat (Escherichia coli [17]): 16 s⁻¹; kcat/Km (Escherichia coli [17]): 0.07 µM⁻¹ s⁻¹
CCN1CCN(C(=O)N[C@@H](C(=O)N[C@@H]2C(=O)N3[C@@H]2SC(C)(C)[C@@H]3C(=O)O)c2ccccc2)C(=O)C1=O [PIPERACILLIN]	512	256 (≈ 495 µM)	2 (≈ 3.86 µM)	512 (≈ 989 µM)	> 2050	512 (≈ 989 µM)	512 (≈ 989 µM)	1020	> 2050	> 2050	> 2050	1220	39	336	8.6	27	213	7.9	1250	44	Km (Escherichia coli [12]): 170 µM; kcat/Km (Escherichia coli [12]): 7.1 µM⁻¹ s⁻¹; Km (Escherichia coli [15]): 55 µM; kcat/Km (Escherichia coli [15]): 2.3 µM⁻¹ s⁻¹; kcat (Escherichia coli [16]): 172 s⁻¹; kcat/Km (Escherichia coli [16]): 3.9 µM⁻¹ s⁻¹; Km (Escherichia coli [17]): 50 µM; kcat (Escherichia coli [17]): 306 s⁻¹; kcat/Km (Escherichia coli [17]): 6.12 µM⁻¹ s⁻¹
CC1(C)S[C@@H]2[C@H](NC(=O)[C@H](N)c3ccc(O)cc3)C(=O)N2[C@H]1C(=O)O [AMOXICILLIN]	> 2050	> 2050	4 (≈ 10.9 µM)	> 2050	> 2050	> 2050	> 2050	> 2050	> 2050	> 2050	> 2050	624	26	91	3.5	12	88	7.3	1120	40	Km (Escherichia coli [12]): 114 µM; kcat/Km (Escherichia coli [12]): 5.5 µM⁻¹ s⁻¹; Km (Escherichia coli [15]): 15 µM; kcat/Km (Escherichia coli [15]): 75 µM⁻¹ s⁻¹; kcat (Escherichia coli [16]): 149 s⁻¹; kcat/Km (Escherichia coli [16]): 3.7 µM⁻¹ s⁻¹; Km (Escherichia coli [17]): 48 µM; kcat (Escherichia coli [17]): 258 s⁻¹; kcat/Km (Escherichia coli [17]): 5.4 µM⁻¹ s⁻¹
CC1(C)S[C@@H]2[C@H](NC(=O)[C@H](C(=O)O)c3ccsc3)C(=O)N2[C@H]1C(=O)O [TICARCILLIN]	> 2050	> 2050	2 (≈ 5.2 µM)	> 2050	> 2050	> 2050	> 2050	> 2050	> 2050	> 2050	> 2050	176	14	42	3	9	38	4.2	135	21	Km (Escherichia coli [12]): 130 µM; kcat/Km (Escherichia coli [12]): 1.3 µM⁻¹ s⁻¹; Km (Escherichia coli [15]): 36 µM; kcat/Km (Escherichia coli [15]): 3.8 µM⁻¹ s⁻¹; kcat (Escherichia coli [16]): 60 s⁻¹; kcat/Km (Escherichia coli [16]): 2.9 µM⁻¹ s⁻¹; Km (Escherichia coli [17]): 36 µM; kcat (Escherichia coli [17]): 51 s⁻¹; kcat/Km (Escherichia coli [17]): 1.4 µM⁻¹ s⁻¹
O=C(O)[C@H]1/C(=C/CO)O[C@@H]2CC(=O)N21 [CLAVULANIC ACID]																					IC50 [18]: 1000 nM; IC50 [19]: 20 nM; IC50 [20]: 20.5 µM; IC50 [21]: 25 nM; IC50 [22]: 170 nM; IC50 [23]: 80 nM
C[C@H]1[C@H](NC(=O)/C(=N\OC(C)(C)C(=O)O)c2csc(N)n2)C(=O)N1S(=O)(=O)O (stereo in doubt) [AZTREONAM]		2 (≈ 4.59 µM)			> 2050	8 (≈ 18.4 µM)		4			64 (≈ 147 µM)	< 0.1	34	2.1	0.06	75	43	0.57	< 0.1	83	kcat (Escherichia coli [16]): 8.3 s⁻¹; kcat/Km (Escherichia coli [16]): 0.1 µM⁻¹ s⁻¹; Km (Escherichia coli [17]): 22 µM; kcat (Escherichia coli [17]): 3.5 s⁻¹; kcat/Km (Escherichia coli [17]): 0.16 µM⁻¹ s⁻¹
CO/N=C(\C(=O)N[C@@H]1C(=O)N2C(C(=O)[O-])=C(C[N+]3(C)CCCC3)CS[C@H]12)c1csc(N)n1	< 0.06		< 0.06	< 0.06	2 (≈ 4.16 µM)		< 0.06	4	0.12	16	16 (≈ 33.3 µM)	< 0.1	145	17	0.11	72	8	0.11	< 0.1	126	kcat (Escherichia coli [16]): 2.5 s⁻¹; kcat/Km (Escherichia coli [16]): 0.02 µM⁻¹ s⁻¹; Km (Escherichia coli [17]): 45 µM; kcat (Escherichia coli [17]): 2.8 s⁻¹; kcat/Km (Escherichia coli [17]): 0.06 µM⁻¹ s⁻¹
CC(=O)OCC1=C(C(=O)O)N2C(=O)[C@@H](NC(=O)Cc3cccs3)[C@H]2SC1 [CEPHALOTHIN]	4	8 (≈ 20.2 µM)	4 (≈ 10.1 µM)	4 (≈ 10.1 µM)	32 (≈ 80.7 µM)	32 (≈ 80.7 µM)	4 (≈ 10.1 µM)	64	16	128	16 (≈ 40.4 µM)	18.4	205	126	0.61	288	194	0.67	165	330	Km (Escherichia coli [12]): 335 µM; kcat/Km (Escherichia coli [12]): 0.05 µM⁻¹ s⁻¹; Km (Escherichia coli [15]): 242 µM; kcat/Km (Escherichia coli [15]): 0.7 µM⁻¹ s⁻¹; kcat (Escherichia coli [16]): 15 s⁻¹; kcat/Km (Escherichia coli [16]): 0.04 µM⁻¹ s⁻¹; Km (Escherichia coli [17]): 260 µM; kcat (Escherichia coli [17]): 4 s⁻¹; kcat/Km (Escherichia coli [17]): 0.02 µM⁻¹ s⁻¹
CO/N=C(\C(=O)N[C@@H]1C(=O)N2C(C(=O)O)=C(COC(N)=O)CS[C@H]12)c1ccco1 [CEFUROXIME]	4	8 (≈ 18.9 µM)	4 (≈ 9.43 µM)	4 (≈ 9.43 µM)	8 (≈ 18.9 µM)	8 (≈ 18.9 µM)	4 (≈ 9.43 µM)	1020	8	16	8 (≈ 18.9 µM)										
